In PubChem BioAssay (NCI):
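Protocol summary: plate cells (96-well), add compound at 5 concentrations, incubate 48 h, interpolate endpoints linearly. Abbreviation: GI50, concentration required for 50% inhibition of growth. TGI: concentration producing complete growth inhibition.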

Columns and labels:
Assay in all cases: NCI-60 cell line screen, 48 h
[1] = test system: 786-0 renal
[2] = test system: A498 renal
[3] = test system: A549 NSCLC
[4] = test system: ACHN renal
[5] = test system: BT-549 breast
[6] = test system: CAKI-1 renal
[7] = test system: CCRF-CEM leukemia
[8] = test system: COLO 205 colon
[9] = test system: DU-145 prostate
[10] = test system: HCC-2998 colon
[11] = test system: HCT-116 colon
[12] = test system: HCT-15 colon
[13] = test system: HL-60(TB) leukemia
[14] = test system: HOP-62 NSCLC
[15] = test system: HS 578T breast
[16] = test system: HT29 colon
[17] = test system: IGROV1 ovarian
[18] = test system: K-562 leukemia
[19] = test system: KM12 colon
[20] = test system: LOX IMVI melanoma
[21] = test system: M14 melanoma
[22] = test system: MALME-3M melanoma
[23] = test system: MCF7 breast
[24] = test system: MDA-MB-231 breast
[25] = test system: MDA-MB-435
[26] = test system: MOLT-4 leukemia
[27] = test system: NCI-H226 lung
[28] = test system: NCI-H23 lung
[29] = test system: NCI-H460 lung
[30] = test system: NCI-H522 lung
[31] = test system: NCI/ADR-RES ovarian
[32] = test system: OVCAR-3 ovarian
[33] = test system: OVCAR-4 ovarian
[34] = test system: OVCAR-5 ovarian
[35] = test system: OVCAR-8 ovarian
[36] = test system: PC-3 prostate
[37] = test system: RPMI-8226 leukemia
[38] = test system: RXF 393 renal
[39] = test system: SF-268 CNS
[40] = test system: SF-295 CNS
[41] = test system: SF-539 CNS
[42] = test system: SK-MEL-2 melanoma
[43] = test system: SK-MEL-28 melanoma
[44] = test system: SK-MEL-5 melanoma
[45] = test system: SK-OV-3 ovarian
[46] = test system: SN12C renal
[47] = test system: SNB-19 CNS
[48] = test system: SNB-75 CNS
[49] = test system: SR leukemia
[50] = test system: SW-620 colon
[51] = test system: T-47D breast
[52] = test system: TK-10 renal
[53] = test system: U251 CNS
[54] = test system: UACC-257 melanoma
[55] = test system: UACC-62 melanoma
[56] = test system: UO-31 renal

CCC(C)n1cc(C)c2c(C(=O)NCc3c(C)cc(C)[nH]c3=O)cc(Br)cc21 (configuration not stated)
GI50 [1]: > 100 µM
TGI [1]: > 100 µM
GI50 [2]: 38.4 µM
TGI [2]: > 100 µM
GI50 [3]: 39.7 µM
TGI [3]: > 100 µM
GI50 [4]: 46.1 µM
TGI [4]: > 100 µM
GI50 [5]: 41.8 µM
TGI [5]: > 100 µM
GI50 [6]: 94.1 µM
TGI [6]: > 100 µM
GI50 [7]: 30.8 µM
TGI [7]: > 100 µM
GI50 [8]: 42.1 µM
TGI [8]: > 100 µM
GI50 [9]: 76.8 µM
TGI [9]: > 100 µM
GI50 [10]: 52.4 µM
TGI [10]: > 100 µM
GI50 [11]: 48 µM
TGI [11]: > 100 µM
GI50 [12]: 29 µM
TGI [12]: > 100 µM
GI50 [13]: 24.3 µM
TGI [13]: 58.4 µM
GI50 [14]: 65.2 µM
TGI [14]: > 100 µM
GI50 [15]: 35 µM
TGI [15]: > 100 µM
GI50 [16]: 41.5 µM
TGI [16]: > 100 µM
GI50 [17]: > 100 µM
TGI [17]: > 100 µM
GI50 [18]: 34.6 µM
TGI [18]: > 100 µM
GI50 [19]: 38.1 µM
TGI [19]: > 100 µM
GI50 [20]: 32.8 µM
TGI [20]: > 100 µM
GI50 [21]: 35.2 µM
TGI [21]: > 100 µM
GI50 [22]: 36.2 µM
TGI [22]: 99.7 µM
GI50 [23]: 29.4 µM
TGI [23]: > 100 µM
GI50 [24]: 45 µM
TGI [24]: > 100 µM
GI50 [25]: 27.1 µM
TGI [25]: > 100 µM
GI50 [26]: 26.2 µM
TGI [26]: 71.6 µM
GI50 [27]: 57.5 µM
TGI [27]: > 100 µM
GI50 [28]: 76.3 µM
TGI [28]: > 100 µM
GI50 [29]: 40.3 µM
TGI [29]: > 100 µM
GI50 [30]: 38 µM
TGI [30]: > 100 µM
GI50 [31]: 33.8 µM
TGI [31]: > 100 µM
GI50 [32]: 44.5 µM
TGI [32]: > 100 µM
GI50 [33]: 37.2 µM
TGI [33]: > 100 µM
GI50 [34]: > 100 µM
TGI [34]: > 100 µM
GI50 [35]: 63.7 µM
TGI [35]: > 100 µM
GI50 [36]: 19.1 µM
TGI [36]: 66.9 µM
GI50 [37]: 24.8 µM
TGI [37]: 68 µM
GI50 [38]: 27.6 µM
TGI [38]: > 100 µM
GI50 [39]: 72.3 µM
TGI [39]: > 100 µM
GI50 [40]: 29.9 µM
TGI [40]: > 100 µM
GI50 [41]: > 100 µM
TGI [41]: > 100 µM
GI50 [42]: 35.9 µM
TGI [42]: > 100 µM
GI50 [43]: 72.5 µM
TGI [43]: > 100 µM
GI50 [44]: 13.2 µM
TGI [44]: 29.1 µM
GI50 [45]: > 100 µM
TGI [45]: > 100 µM
GI50 [46]: 55.6 µM
TGI [46]: > 100 µM
GI50 [47]: > 100 µM
TGI [47]: > 100 µM
GI50 [48]: 43.5 µM
TGI [48]: > 100 µM
GI50 [49]: 32.9 µM
TGI [49]: > 100 µM
GI50 [50]: 36.4 µM
TGI [50]: > 100 µM
GI50 [51]: 20 µM
TGI [51]: 73.3 µM
GI50 [52]: > 100 µM
TGI [52]: > 100 µM
GI50 [53]: 62.8 µM
TGI [53]: > 100 µM
GI50 [54]: 32.8 µM
TGI [54]: > 100 µM
GI50 [55]: 29.4 µM
TGI [55]: > 100 µM
GI50 [56]: 70.5 µM
TGI [56]: > 100 µM
